# Assay results: patent US20230017045A1, “PYRIDINE AND PYRIMIDINE CARBOXYLATE HERBICIDES AND METHODS OF USE THEREOF” (Dow AgroSciences LLC, priority 2017, published 2023)
# Tested on: test plant species
# Assay: Post-emergent herbicidal activity test (greenhouse, foliar spray, visual growth reduction)
# Format: in vivo
# Conditions: post-emergence, 336 h, ALOMY: blackgrass (Alopecurus myosuroides), 140 g ai/ha, 14 days after application, read-out: Visual Growth Reduction (%) 14 Days After Application, ALOMY
# In short: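 Visual percent injury (0-100) rated 14 d after treatment, relative to nontreated and solvent-blank plants. Test plants at first or second true leaf stage received an overhead track-sprayer application at 187 L/ha. Compounds were formulated in aqueous acetone/DMSO carrier containing crop oil concentrate and X-77 surfactant.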
row,SMILES,pest or weed control at 140 g/ha [%]
1,"C#Cc1cc(-c2ccc(C(F)(F)F)cc2Cl)nc(C(=O)OC)c1Cl [F40, methyl 3-chloro-6-(2-chloro-4-(trifluoromethyl)phenyl)-4-ethynylpicolinate]",0 to 29
2,"COC(=O)c1nc(-c2ccc(C(F)(F)C#N)cc2Cl)ccc1Cl [F178, Methyl 3-chloro-6-(2-chloro-4-(cyanodifluoromethyl)phenyl)picolinate]",0 to 29

# Same assay, conditions: post-emergence, 336 h, AMARE: redroot pigweed (Amaranthus retroflexus), 140 g ai/ha, 14 days after application, read-out: Visual Growth Reduction (%) 14 Days After Application, AMARE
row,SMILES,pest or weed control at 140 g/ha [%]
1,"C#Cc1cc(-c2ccc(C(F)(F)F)cc2Cl)nc(C(=O)OC)c1Cl [F40, methyl 3-chloro-6-(2-chloro-4-(trifluoromethyl)phenyl)-4-ethynylpicolinate]",0 to 29
2,"COC(=O)c1nc(-c2ccc(C(F)(F)C#N)cc2Cl)ccc1Cl [F178, Methyl 3-chloro-6-(2-chloro-4-(cyanodifluoromethyl)phenyl)picolinate]",0 to 29

# Same assay, conditions: post-emergence, 336 h, AVEFA: wild oat (Avena fatua), 140 g ai/ha, 14 days after application, read-out: Visual Growth Reduction (%) 14 Days After Application, AVEFA
row,SMILES,pest or weed control at 140 g/ha [%]
1,"C#Cc1cc(-c2ccc(C(F)(F)F)cc2Cl)nc(C(=O)OC)c1Cl [F40, methyl 3-chloro-6-(2-chloro-4-(trifluoromethyl)phenyl)-4-ethynylpicolinate]",0 to 29
2,"COC(=O)c1nc(-c2ccc(C(F)(F)C#N)cc2Cl)ccc1Cl [F178, Methyl 3-chloro-6-(2-chloro-4-(cyanodifluoromethyl)phenyl)picolinate]",0 to 29

# Same assay, conditions: post-emergence, 336 h, CHEAL: lambsquarters (Chenopodium album), 140 g ai/ha, 14 days after application, read-out: Visual Growth Reduction (%) 14 Days After Application, CHEAL
row,SMILES,pest or weed control at 140 g/ha [%]
1,"C#Cc1cc(-c2ccc(C(F)(F)F)cc2Cl)nc(C(=O)OC)c1Cl [F40, methyl 3-chloro-6-(2-chloro-4-(trifluoromethyl)phenyl)-4-ethynylpicolinate]",0 to 29
2,"COC(=O)c1nc(-c2ccc(C(F)(F)C#N)cc2Cl)ccc1Cl [F178, Methyl 3-chloro-6-(2-chloro-4-(cyanodifluoromethyl)phenyl)picolinate]",0 to 29

# Same assay, conditions: post-emergence, 336 h, CIRAR: canada thistle (Cirsium arvense), 140 g ai/ha, 14 days after application, read-out: Visual Growth Reduction (%) 14 Days After Application, CIRAR
row,SMILES,pest or weed control at 140 g/ha [%]
1,"C#Cc1cc(-c2ccc(C(F)(F)F)cc2Cl)nc(C(=O)OC)c1Cl [F40, methyl 3-chloro-6-(2-chloro-4-(trifluoromethyl)phenyl)-4-ethynylpicolinate]",0 to 29
2,"COC(=O)c1nc(-c2ccc(C(F)(F)C#N)cc2Cl)ccc1Cl [F178, Methyl 3-chloro-6-(2-chloro-4-(cyanodifluoromethyl)phenyl)picolinate]",0 to 29

# Same assay, conditions: post-emergence, 336 h, CYPES: yellow nutsedge (Cyperus esculentus), 140 g ai/ha, 14 days after application, read-out: Visual Growth Reduction (%) 14 Days After Application, CYPES
row,SMILES,pest or weed control at 140 g/ha [%]
1,"C#Cc1cc(-c2ccc(C(F)(F)F)cc2Cl)nc(C(=O)OC)c1Cl [F40, methyl 3-chloro-6-(2-chloro-4-(trifluoromethyl)phenyl)-4-ethynylpicolinate]",0 to 29
2,"COC(=O)c1nc(-c2ccc(C(F)(F)C#N)cc2Cl)ccc1Cl [F178, Methyl 3-chloro-6-(2-chloro-4-(cyanodifluoromethyl)phenyl)picolinate]",0 to 29

# Same assay, conditions: post-emergence, 336 h, DIGSA: crabgrass (Digitaria sanguinalis), 140 g ai/ha, 14 days after application, read-out: Visual Growth Reduction (%) 14 Days After Application, DIGSA
row,SMILES,pest or weed control at 140 g/ha [%]
1,"C#Cc1cc(-c2ccc(C(F)(F)F)cc2Cl)nc(C(=O)OC)c1Cl [F40, methyl 3-chloro-6-(2-chloro-4-(trifluoromethyl)phenyl)-4-ethynylpicolinate]",0 to 29
2,"COC(=O)c1nc(-c2ccc(C(F)(F)C#N)cc2Cl)ccc1Cl [F178, Methyl 3-chloro-6-(2-chloro-4-(cyanodifluoromethyl)phenyl)picolinate]",0 to 29

# Same assay, conditions: post-emergence, 336 h, ECHCG: barnyardgrass (Echinochloa crus-galli), 140 g ai/ha, 14 days after application, read-out: Visual Growth Reduction (%) 14 Days After Application, ECHCG
row,SMILES,pest or weed control at 140 g/ha [%]
1,"C#Cc1cc(-c2ccc(C(F)(F)F)cc2Cl)nc(C(=O)OC)c1Cl [F40, methyl 3-chloro-6-(2-chloro-4-(trifluoromethyl)phenyl)-4-ethynylpicolinate]",0 to 29
2,"COC(=O)c1nc(-c2ccc(C(F)(F)C#N)cc2Cl)ccc1Cl [F178, Methyl 3-chloro-6-(2-chloro-4-(cyanodifluoromethyl)phenyl)picolinate]",0 to 29

# Same assay, conditions: post-emergence, 336 h, IPOHE: ivy-leaf morning glory (Ipomoea hederacea), 140 g ai/ha, 14 days after application, read-out: Visual Growth Reduction (%) 14 Days After Application, IPOHE
row,SMILES,pest or weed control at 140 g/ha [%]
1,"C#Cc1cc(-c2ccc(C(F)(F)F)cc2Cl)nc(C(=O)OC)c1Cl [F40, methyl 3-chloro-6-(2-chloro-4-(trifluoromethyl)phenyl)-4-ethynylpicolinate]",30 to 44
2,"COC(=O)c1nc(-c2ccc(C(F)(F)C#N)cc2Cl)ccc1Cl [F178, Methyl 3-chloro-6-(2-chloro-4-(cyanodifluoromethyl)phenyl)picolinate]",0 to 29

# Same assay, conditions: post-emergence, 336 h, KCHSC: kochia (Bassia scoparia), 140 g ai/ha, 14 days after application, read-out: Visual Growth Reduction (%) 14 Days After Application, KCHSC
row,SMILES,pest or weed control at 140 g/ha [%]
1,"C#Cc1cc(-c2ccc(C(F)(F)F)cc2Cl)nc(C(=O)OC)c1Cl [F40, methyl 3-chloro-6-(2-chloro-4-(trifluoromethyl)phenyl)-4-ethynylpicolinate]",0 to 29
2,"COC(=O)c1nc(-c2ccc(C(F)(F)C#N)cc2Cl)ccc1Cl [F178, Methyl 3-chloro-6-(2-chloro-4-(cyanodifluoromethyl)phenyl)picolinate]",0 to 29

# Same assay, conditions: post-emergence, 336 h, ORYSA: rice (Oryza sativa), 140 g ai/ha, 14 days after application, read-out: Visual Growth Reduction (%) 14 Days After Application, ORYSA
row,SMILES,pest or weed control at 140 g/ha [%]
1,"C#Cc1cc(-c2ccc(C(F)(F)F)cc2Cl)nc(C(=O)OC)c1Cl [F40, methyl 3-chloro-6-(2-chloro-4-(trifluoromethyl)phenyl)-4-ethynylpicolinate]",0 to 29
2,"COC(=O)c1nc(-c2ccc(C(F)(F)C#N)cc2Cl)ccc1Cl [F178, Methyl 3-chloro-6-(2-chloro-4-(cyanodifluoromethyl)phenyl)picolinate]",0 to 29

# Same assay, conditions: post-emergence, 336 h, SETFA: giant foxtail (Setaria faberi), 140 g ai/ha, 14 days after application, read-out: Visual Growth Reduction (%) 14 Days After Application, SETFA
row,SMILES,pest or weed control at 140 g/ha [%]
1,"C#Cc1cc(-c2ccc(C(F)(F)F)cc2Cl)nc(C(=O)OC)c1Cl [F40, methyl 3-chloro-6-(2-chloro-4-(trifluoromethyl)phenyl)-4-ethynylpicolinate]",0 to 29
2,"COC(=O)c1nc(-c2ccc(C(F)(F)C#N)cc2Cl)ccc1Cl [F178, Methyl 3-chloro-6-(2-chloro-4-(cyanodifluoromethyl)phenyl)picolinate]",0 to 29

# Same assay, conditions: post-emergence, 336 h, SORVU: grain sorghum (Sorghum vulgare), 140 g ai/ha, 14 days after application, read-out: Visual Growth Reduction (%) 14 Days After Application, SORVU
row,SMILES,pest or weed control at 140 g/ha [%]
1,"C#Cc1cc(-c2ccc(C(F)(F)F)cc2Cl)nc(C(=O)OC)c1Cl [F40, methyl 3-chloro-6-(2-chloro-4-(trifluoromethyl)phenyl)-4-ethynylpicolinate]",60 to 74
2,"COC(=O)c1nc(-c2ccc(C(F)(F)C#N)cc2Cl)ccc1Cl [F178, Methyl 3-chloro-6-(2-chloro-4-(cyanodifluoromethyl)phenyl)picolinate]",0 to 29

# Same assay, conditions: post-emergence, 336 h, STEME: common chickweed (Stellaria media), 140 g ai/ha, 14 days after application, read-out: Visual Growth Reduction (%) 14 Days After Application, STEME
row,SMILES,pest or weed control at 140 g/ha [%]
1,"C#Cc1cc(-c2ccc(C(F)(F)F)cc2Cl)nc(C(=O)OC)c1Cl [F40, methyl 3-chloro-6-(2-chloro-4-(trifluoromethyl)phenyl)-4-ethynylpicolinate]",0 to 29
2,"COC(=O)c1nc(-c2ccc(C(F)(F)C#N)cc2Cl)ccc1Cl [F178, Methyl 3-chloro-6-(2-chloro-4-(cyanodifluoromethyl)phenyl)picolinate]",0 to 29

# Same assay, conditions: post-emergence, 336 h, TRZAS: wheat, spring (Triticum aestivum), 140 g ai/ha, 14 days after application, read-out: Visual Growth Reduction (%) 14 Days After Application, TRZAS
row,SMILES,pest or weed control at 140 g/ha [%]
1,"C#Cc1cc(-c2ccc(C(F)(F)F)cc2Cl)nc(C(=O)OC)c1Cl [F40, methyl 3-chloro-6-(2-chloro-4-(trifluoromethyl)phenyl)-4-ethynylpicolinate]",0 to 29
2,"COC(=O)c1nc(-c2ccc(C(F)(F)C#N)cc2Cl)ccc1Cl [F178, Methyl 3-chloro-6-(2-chloro-4-(cyanodifluoromethyl)phenyl)picolinate]",0 to 29
